Patent US20260258054A1, “SMALL MOLECULE FOR TREATMENT OF CANCER OF THE APPENDIX” (The Regents of the University of California, priority 2022, published 2026)
pIC50: −log10 of the molar value. Entries after “also recorded” stand apart in the source; their conditions may differ.

What was measured:
[1] = test system: KM12 GNAS^R201H organoids; assay: 3D organoid growth, KM12 GNAS^R201H organoids; format: cell-based, human; conditions: H-89 60 μM, 10 days, vs. DMSO control, p=0.004
Description: (§1) FIGS. 4A-4C: GNAS signals through the CAMP-PKA axis. (FIG. 4A), KM12 GNAS^R201H and GNAS^352delG cells were treated with forskolin (0-250 μM) for 15 min. Following the treatment, cells were lysed, and cAMP levels were measured as described in the methods. (FIG. 4B), LS174T GNAS^R201H cells were treated with and without doxycycline, and cAMP levels measured after induction with forskolin (0-2.5 μM) for 15 min. (FIG. 4C), KM12 GNAS^R201H and GNAS^352delG organoids were grown in 3D-matrigel domes and treated with the PKA inhibitor H-89 (60 μM) for 10 days.
FIGS. 5A-5F: β-catenin is a downstream mediator of mutant GNAS signaling. (FIG. 5A), Top 10 hallmark genesets from the KM12 GNAS^KO-pool and LS174T GNAS overexpression datasets were selected and overlapping genesets were plotted. […] (FIG. 5D), Quantification of IHC tumors showing % of cells staining positive of β-catenin. (FIG. 5E), Quantification of the cytoplasmic and nuclear distribution of β-catenin based on IHC staining. […]
KM12 and LS174T cells were suspended with Matrigel (BD) at 100 cells/μL and plated as 5 μL droplets onto 96-well multi-well culture plates. […] The plates were placed in the cell imaging multi-mode plate reader Cytation™ 5 (Biotek, Winooski, VT) at 37° C. in an atmosphere supplemented with 5% CO2. […] The numbers and total area of organoids were calculated.

[2] = test system: GNAS KO isogenic paired cell line of SNU-175; assay: cAMP-Glo assay, GNAS KO SNU-175 cells; format: cell-based, human; conditions: mM doses (1-5 mM), 20 hours
Description: (§2) A study was conducted to examine the effect of compound GE3 as a Gαs Inhibitor. Cells were treated with compound GE3 at high (1-5 mM) and low (0-0.5 mM) doses for 20 hours. cAMP levels were measured using the CAMP-Glo™ Assay (Promega). An isogenic paired cell line was created by using CRISPR-Cas9 to knockout (KO) GNAS from the SNU-175 cell line; this model system has been previously described (Oncogene. 2022 August; 41(35):4159-4168).
(§3) The same experimental system was used as above to test lower doses of GE3.

[3] = test system: SNU-175 cells (GNAS^R201C); assay: Incucyte viability (confluence), SNU-175 cells; format: cell-based, human
Description: (§4) Viability was measured over time but determining cell confluence in experimental well using Incucyte Live-Cell Analysis system (Sartorius). JVS-324 was added in increasing concentrations and cell growth monitored for 72 hours. Confluency evaluation was normalized time point zero. An isogenic paired cell line was created by using CRISPR-Cas9 to knockout (KO) GNAS from the SNU-175 cell line; this model system has been previously described (Oncogene. 2022 August; 41 (35):4159-4168).
(§5) Viability was measured over time but determining cell confluence in experimental well using Incucyte Live-Cell Analysis system (Sartorius); two experiments performed. […] (FIG. 26).

GNAS KO SNU-175 = assay: Incucyte viability (confluence), GNAS KO SNU-175 cells; format: cell-based, human
Description: as §4, §5

[4] = test system: SNU-175 (GNAS^R201C CRC cell line); assay: cAMP-Glo assay, SNU-175 cells; format: cell-based, human
Description: as §2, §3

MEK regulated genes = assay: RNAseq analysis of post-treatment samples from trial NCT03108131 in appendiceal cancer; format: in vivo; conditions: cobimetinib with atezolizumab, three post-treatment samples
LS174T GNAS^R201H cells = assay: cAMP levels, LS174T cells overexpressing GNAS^R201H; format: cell-based, human; conditions: forskolin 0-2.5 μM, 15 min; doxycycline induced
Description: as §1

[5] = test system: KM12 GNAS^352delG organoids; assay: 3D organoid growth, KM12 GNAS knockout (GNAS^352delG) organoids; format: cell-based, human; conditions: supplementation of organoid cultures with conditioned medium
Description: as §1
FIGS. 5A-5F: β-catenin is a downstream mediator of mutant GNAS signaling. (FIG. 5A), Top 10 hallmark genesets from the KM12 GNAS^KO-pool and LS174T GNAS overexpression datasets were selected and overlapping genesets were plotted. (FIG. 5B), Ratio of pT41/S45 phosphoβ-catenin/β-catenin based on the RPPA analysis results. (FIG. 5C), Immunohistochemistry (IHC) staining of β-catenin in LS174T dox (−) and dox (+) tissues from intraperitoneal mouse tumors. (FIG. 5D), Quantification of IHC tumors showing % of cells staining positive of β-catenin. (FIG. 5E), Quantification of the cytoplasmic and nuclear distribution of β-catenin based on IHC staining. (FIG. 5F), Effect of LF3 (β-catenin inhibitor) on the growth of KM12 (GNAS^R201H and GNAS^352delG) organoids. DMSO (0.2%) was used as control treatment and organoids were cultured for 10 days.
FIGS. 9A-9B: Wnt stimulation rescued growth of GNAS knockout organoids. (FIG. 9A), 3D growth of KM12 GNAS knockout organoids after supplementation with Wnt3a or R-spondin conditioned medium. (FIG. 9B), Quantification of growth by measuring total colony area (%).
KM12 and LS174T cells were suspended with Matrigel (BD) at 100 cells/μL and plated as 5 μL droplets onto 96-well multi-well culture plates. The plates were incubated at 37° C. for 15 min. […] The plates were placed in the cell imaging multi-mode plate reader Cytation™ 5 (Biotek, Winooski, VT) at 37° C. in an atmosphere supplemented with 5% CO2. […] The numbers and total area of organoids were calculated.

Compound: O=S(=O)(NCCNC/C=C/c1ccc(Br)cc1)c1cccc2cnccc12 [Compound H-89]
- reduced the growth of KM12 organoids [1]: 79%

Compound: CCC(CC)COC(=O)[C@H](C)NP(=O)(OC[C@H]1O[C@@H](n2cnc3c(=O)[nH]c(N)nc32)[C@@H]2O[C@@H]21)Oc1ccccc1 (stereo partly drawn) [GE3]
- cAMP levels [2]: significantly reduced CAMP
- dose by which growth was comparable to the level in the KO cells [3]: 0.01 mM
- cell growth / viability ([3]; GE3, lower doses): dose-dependent fashion; also recorded: decreased viability
- cell growth ([3]; GE3 at mM doses): significantly reduced growth
- cell growth ([3]; GE3 by 1 mM): essentially no growth
- pIC50 ([3]; Homo sapiens, read-out: IC50 in viability assay): 3.98
- cell growth (GNAS KO SNU-175; GE3 at mM doses): significantly reduced growth
- cell growth (GNAS KO SNU-175; GE3 by 1 mM): essentially no growth
- potency relative to JVS-324 (cAMP) [4]: significantly more potent
- dose by which cAMP level was comparable to the level in the KO cells ([4]; 20 hours): 0.01 mM
- cAMP levels ([4]; lower doses (0-0.5 mM), 20 hours): dose-dependent fashion; also recorded: inhibits cAMP production
- cAMP levels ([4]; mM doses (1-5 mM), 20 hours): significantly reduced CAMP; also recorded: inhibits cAMP production

Compound: O=C(c1ccc(F)c(F)c1Nc1ccc(I)cc1F)N1CC(O)([C@@H]2CCCCN2)C1 [cobimetinib]
- expression of MEK regulated genes (MEK regulated genes): not down regulated

Compound: C=C[C@@]1(C)CC(=O)[C@]2(O)[C@@]3(C)[C@@H](O)CCC(C)(C)[C@@H]3[C@H](O)[C@H](OC(C)=O)[C@@]2(C)O1 [forskolin]
- effect of forskolin on basal levels of cAMP (LS174T GNAS^R201H cells): no effect

Compound: Wnt3a
- rescue of organoid growth of GNAS-knockout cells [5]: rescued organoid growth
- rescue of organoid growth of GNAS-knockout cells ([5]; listed as WNT3A): can be rescued
- rescue of organoid growth of GNAS-knockout cells ([5]; listed as Wnt3A): rescue GNAS knockout
